{"source": "patent US20220389006A1", "about": "“SALTS AND FORMS OF AN ESTROGEN RECEPTOR MODULATOR” (Recurium IP Holdings, LLC, priority 2019, published 2022)", "key": {"[1]": {"assay": "TGA of samples heated to 150° C. (FIG. 34)", "format": "physicochemical", "protocol": "FIG. 34 provides a TGA thermogram for (1) Form A for a sample heated to 150° C., and (2) a sample initially dried under vacuum for 3 hours at 40° C.\n(§1) Form A retains its crystallinity to a temperature of about 150° C. […] In addition, Form A can be heated to at least to 100° C. that can allow for the removal of any trapped solvent without erosion of purity, which can be beneficial. The purity of initial Form A, Form A after being heated to 100° C., and Form A after being heated to 150° C. are shown.\nTGA data were collected using a TA Discovery 5500 TGA from TA Instruments. DSC was performed using a TA Discovery 2500 DSC from TA Instruments."}, "MCF7": {"test_system": "MCF7", "assay": "Breast Cancer Cell Proliferation Assay (MCF-7)", "format": "cell-based", "conditions": "5 days of compound exposure, Cell Titer-Glo", "protocol": "MCF7 was expanded and maintained in the medium (Phenol red free DMEM/F12 (Hyclone SH30272.01) NEAA (Gibco 11140-050) Na-pyruvate (Gibco 11360-070) and Re-stripped Charcoal stripped FBS (Gemini 100-119)). The cells were adjusted to a concentration of 3,000 cells per mL in the above media, and the cells were incubated (37° C., 5% CO2). The following day a 10 point, serial dilution of compounds was added to the cells at a final concentration ranging from 10-0.000005 μM for the test compounds (17β-estradiol was used as a control). Additional cells were plated in 30 wells to serve as the day 1 (pretreatment) comparison. After 5 days of compound exposure, Cell Titer-Glo reagent was added to the cells, and the relative luminescence units (RLUs) of each well was determined. Cell Titer-Glo was also added to 32 μL of medium without cells to obtain a background value. The plates were allowed to incubate at room temperature for 10 minutes to stabilize luminescent signal, and the luminescence signal was recorded with EnSpire. The relative increase in cell number of each sample is determined as follows: (RLU sample-RLU background/RLU estrogen only treated cells-RLU background)×100=% inhibition."}, "[2]": {"assay": "Crystallinity before and after grinding (XRPD, FIG. 38)", "format": "physicochemical", "conditions": "for crystallinity after grinding: grinding with a mortar and pestle for approximately 5 minutes, XRPD FIG. 38", "text": "(§2) As shown by the top spectrum, the sharp peaks of the HCl salt of Compound A have flattened out compared to the bottom spectrum. […] The data provide in Table 4 further supports the conclusion that Form A maintains its crystallinity compared to the mesylate salt of Compound A."}, "[3]": {"assay": "HPLC purity before and after heating to 100° C. and 150° C.", "format": "physicochemical", "protocol": "as §1"}, "[4]": {"assay": "Crystallinity / form change upon heating (XRPD)", "format": "physicochemical", "text": "For XRPD analysis, PANalytical X'Pert3 X-ray powder diffractometer was used."}, "[5]": {"assay": "Solid-state storage stability of free base Form I at 5, 40 and 60° C. (HPLC)", "format": "physicochemical", "conditions": "for Area % of A / Purity vs. Initial %: HPLC", "protocol": "Form I was stable in its solid state at 5° C. for 7 days, but degraded upon storage at 40° C. and 60° C.\nIn Table 1, “A” represents Compound A, and the data was obtained via HPLC."}, "[6]": {"assay": "Crystallinity during sample preparation (XRPD, FIG. 37)", "format": "physicochemical", "text": "FIG. 37 provides a representative XRPD pattern of a second HCl salt of Compound A (prior to sample preparation and after re-preparation of the sample).\nas §2"}}, "note": "Read-outs that look alike come from different tables or passages of the source.", "data": [{"molecule": "CC1Cc2c([nH]c3ccccc23)C(c2c(F)cc(C=CC(=O)O)cc2F)N1C12CC(C1)C2.O=S(=O)(O)O", "note": "(centres unmarked) [Form A]", "values": [{"measurement": "degradation (FIG. 34)", "setting": "[1]; sample heated directly to 150 C", "result": 4.47, "unit": "%"}, {"measurement": "degradation (FIG. 34)", "setting": "[1]; sample heated to a lower temperature (<100° C.) and then to 150° C.", "result": 3.54, "unit": "%"}, {"measurement": "IC50", "setting": "MCF7", "result": 200, "unit": "pM"}, {"measurement": "stability after one week", "setting": "25° C. and 60% relative humidity", "result": "stable"}, {"measurement": "stability after one week", "setting": "40° C. and 75% relatively humidity", "result": "stable"}, {"measurement": "Crystallinity", "setting": "[2]; After grinding for 5 mins.", "result": "Decreased crystallinity"}, {"measurement": "Crystallinity", "setting": "[2]; Initial", "result": "Crystalline"}, {"measurement": "crystallinity after grinding", "setting": "[2]", "result": "maintain its crystallinity"}, {"measurement": "HPLC peak No. 2, RRT 0.55 (degradation)", "setting": "[3]; After heating to 100° C.", "result": 0.67}, {"measurement": "HPLC peak No. 3, RRT 0.59 (degradation)", "setting": "[3]; After heating to 100° C.", "result": "<0.05"}, {"measurement": "HPLC peak No. 5, RRT 0.90 (degradation)", "setting": "[3]; After heating to 100° C.", "result": "<0.05"}, {"measurement": "HPLC peak No. 6, RRT 0.94 (degradation)", "setting": "[3]; After heating to 100° C.", "result": "<0.05"}, {"measurement": "HPLC peak No. 8, RRT 0.97 (degradation)", "setting": "[3]; After heating to 100° C.", "result": "<0.05"}, {"measurement": "HPLC peak No. 9, RRT 1.00 (Compound A), purity", "setting": "[3]; After heating to 100° C.", "result": 99.07}, {"measurement": "HPLC peak No. 2, RRT 0.55 (degradation)", "setting": "[3]; After heating to 150° C.", "result": 0.76}, {"measurement": "HPLC peak No. 3, RRT 0.59 (degradation)", "setting": "[3]; After heating to 150° C.", "result": 0.18}, {"measurement": "HPLC peak No. 5, RRT 0.90 (degradation)", "setting": "[3]; After heating to 150° C.", "result": 0.21}, {"measurement": "HPLC peak No. 6, RRT 0.94 (degradation)", "setting": "[3]; After heating to 150° C.", "result": 0.16}, {"measurement": "HPLC peak No. 8, RRT 0.97 (degradation)", "setting": "[3]; After heating to 150° C.", "result": 0.24}, {"measurement": "HPLC peak No. 9, RRT 1.00 (Compound A), purity", "setting": "[3]; After heating to 150° C.", "result": 97.98}, {"measurement": "heat-promoted degradation", "setting": "[3]; HPLC, heated to 100° C. and 150° C.", "result": "resistant to heat-promoted degradation"}, {"measurement": "Purity (area %)", "setting": "[3]; Heated to 100° C.", "result": 99.1, "unit": "area %"}, {"measurement": "Purity (area %)", "setting": "[3]; Heated to 150° C.", "result": 98.0, "unit": "area %"}, {"measurement": "Purity (area %)", "setting": "[3]; Initial", "result": 99.1, "unit": "area %"}, {"measurement": "HPLC peak No. 2, RRT 0.55 (degradation)", "setting": "[3]; Initial (before heating)", "result": 0.67}, {"measurement": "HPLC peak No. 3, RRT 0.59 (degradation)", "setting": "[3]; Initial (before heating)", "result": "<0.05"}, {"measurement": "HPLC peak No. 5, RRT 0.90 (degradation)", "setting": "[3]; Initial (before heating)", "result": "<0.05"}, {"measurement": "HPLC peak No. 6, RRT 0.94 (degradation)", "setting": "[3]; Initial (before heating)", "result": "<0.05"}, {"measurement": "HPLC peak No. 8, RRT 0.97 (degradation)", "setting": "[3]; Initial (before heating)", "result": "<0.05"}, {"measurement": "HPLC peak No. 9, RRT 1.00 (Compound A), purity", "setting": "[3]; Initial (before heating)", "result": 99.07}, {"measurement": "Form change", "setting": "[4]; Heated to 100° C.", "result": "No"}, {"measurement": "Form change", "setting": "[4]; Heated to 150° C.", "result": "No"}, {"measurement": "temperature to which crystallinity is retained", "setting": "[4]; XRPD, FIG. 31", "result": "about 150 °C"}]}, {"molecule": "CC1Cc2c([nH]c3ccccc23)C(c2c(F)cc(C=CC(=O)O)cc2F)N1C12CC(C1)C2", "note": "(centres unmarked) [Form I]", "values": [{"measurement": "stability in solid state", "setting": "[5]; 5° C. for 7 days", "result": "stable"}, {"measurement": "Area % of A", "setting": "[5]; 5° C., 1 Day", "result": 98.24, "unit": "%"}, {"measurement": "Purity vs. Initial %", "setting": "[5]; 5° C., 1 Day", "result": 99.8, "unit": "%"}, {"measurement": "Area % of A", "setting": "[5]; 5° C., 3 Days", "result": 98.09, "unit": "%"}, {"measurement": "Purity vs. Initial %", "setting": "[5]; 5° C., 3 Days", "result": 99.6, "unit": "%"}, {"measurement": "Area % of A", "setting": "[5]; 5° C., 7 Days", "result": 98.14, "unit": "%"}, {"measurement": "Purity vs. Initial %", "setting": "[5]; 5° C., 7 Days", "result": 99.7, "unit": "%"}, {"measurement": "Area % of A", "setting": "[5]; 40° C., 1 Day", "result": 97.60, "unit": "%"}, {"measurement": "Purity vs. Initial %", "setting": "[5]; 40° C., 1 Day", "result": 99.1, "unit": "%"}, {"measurement": "Area % of A", "setting": "[5]; 40° C., 3 Days", "result": 96.79, "unit": "%"}, {"measurement": "Purity vs. Initial %", "setting": "[5]; 40° C., 3 Days", "result": 98.3, "unit": "%"}, {"measurement": "Area % of A", "setting": "[5]; 40° C., 7 Days", "result": 96.18, "unit": "%"}, {"measurement": "Purity vs. Initial %", "setting": "[5]; 40° C., 7 Days", "result": 97.7, "unit": "%"}, {"measurement": "Area % of A", "setting": "[5]; 60° C., 1 Day", "result": 93.42, "unit": "%"}, {"measurement": "Purity vs. Initial %", "setting": "[5]; 60° C., 1 Day", "result": 94.9, "unit": "%"}, {"measurement": "Area % of A", "setting": "[5]; 60° C., 3 Days", "result": 88.31, "unit": "%"}, {"measurement": "Purity vs. Initial %", "setting": "[5]; 60° C., 3 Days", "result": 89.7, "unit": "%"}, {"measurement": "Area % of A", "setting": "[5]; 60° C., 7 Days", "result": 80.95, "unit": "%"}, {"measurement": "Purity vs. Initial %", "setting": "[5]; 60° C., 7 Days", "result": 82.2, "unit": "%"}, {"measurement": "degradation", "setting": "[5]; after 7 days at 40° C.", "result": "approximately 2%"}, {"measurement": "degradation", "setting": "[5]; after 7 days at 60° C.", "result": "approximately 18%"}, {"measurement": "crystallinity upon heating", "setting": "[4]; XRPD, FIG. 30 (initially, after 1, 3 and 7 days)", "result": "lose crystallinity"}]}, {"molecule": "C[C@@H]1Cc2c([nH]c3ccccc23)[C@@H](c2c(F)cc(/C=C/C(=O)O)cc2F)N1C12CC(C1)C2", "note": "[Free base of Compound A, (E)-3-(4-((1R,3R)-2-(Bicyclo[1.1.1]pentan-1-yl)-3-methyl-2,3,4,9-tetrahydro-1H-pyrido[3,4-b]indol-1-yl)-3,5-difluorophenyl)acrylic acid]", "values": [{"measurement": "IC50", "setting": "MCF7; Homo sapiens, MCF7, 120 h", "result": 400, "unit": "pM"}]}, {"molecule": "CC1Cc2c([nH]c3ccccc23)C(c2c(F)cc(C=CC(=O)O)cc2F)N1C12CC(C1)C2.Cl", "note": "(centres unmarked) [HCl salt of Compound A]", "values": [{"measurement": "crystallinity during sample preparation", "setting": "[6]", "result": "variable crystallinity"}]}, {"molecule": "CC1Cc2c([nH]c3ccccc23)C(c2c(F)cc(C=CC(=O)O)cc2F)N1C12CC(C1)C2.CS(=O)(=O)O", "note": "(centres unmarked) [Mesylate salt of Compound A]", "values": [{"measurement": "Crystallinity", "setting": "[2]; After grinding for 5 mins.", "result": "Amorphous"}, {"measurement": "Crystallinity", "setting": "[2]; Initial", "result": "Crystalline"}, {"measurement": "crystallinity after grinding", "setting": "[2]", "result": "loss of crystallinity"}, {"measurement": "Purity (area %)", "setting": "[3]; Heated to 100° C.", "result": 98.4, "unit": "area %"}, {"measurement": "Purity (area %)", "setting": "[3]; Heated to 150° C.", "result": 97.1, "unit": "area %"}, {"measurement": "Purity (area %)", "setting": "[3]; Initial", "result": 98.4, "unit": "area %"}, {"measurement": "Form change", "setting": "[4]; Heated to 100° C.", "result": "No"}, {"measurement": "Form change", "setting": "[4]; Heated to 150° C.", "result": "No"}]}]}
